Values quoted from earlier work, collected in patent US20220142892A1, “PROCESS FOR THE PREPARATION AND USE OF HAIR TREATMENT COMPOSITIONS CONTAINING ORGANIC C1-C6 ALKOXY SILANES” (Henkel AG & Co. KGaA, priority 2019, published 2022).

Details: 25° C.

For `O=S(=O)([O-])c1ccc(N=Nc2c(O)ccc3ccccc23)cc1.[Na+]` [Acid Orange 7, sodium salt of 4-[(2-hydroxy-1-naphthyl)azo]benzene sulphonate], the solubility in water is given as “more than 7 g/L”.
For `O=C([O-])c1c(Cl)c(Cl)c(Cl)c(Cl)c1-c1c2c(Br)cc(=O)c(Br)c-2oc2c(Br)c(O)cc(Br)c12.O=C([O-])c1c(Cl)c(Cl)c(Cl)c(Cl)c1-c1c2c(Br)cc(=O)c(Br)c-2oc2c(Br)c(O)cc(Br)c12.[Na+].[Na+]` [Acid Red 92, disodium salt of 3,4,5,6-tetrachloro-2-(1,4,5,8-tetrabromo-6-hydroxy-3-oxoxanthen-9-yl)benzoic acid], the solubility in water is listed as “greater than 10 g/L”.
For `O=C([O-])C1=NN(c2ccc(S(=O)(=O)[O-])cc2)C(=O)C1N=Nc1ccc(S(=O)(=O)[O-])cc1.[Na+].[Na+].[Na+]` (stereo not shown) [Acid Yellow 23, trisodium salt of 4,5-dihydro-5-oxo-1-(4-sulfophenyl)-4-((4-sulfophenyl)azo)-1H-pyrazole-3-carboxylic acid], the “solubility in water (in words)” value is given as “highly soluble”.
In the case of `Nc1cc(S(=O)(=O)[O-])cc2cc(S(=O)(=O)[O-])c(N=Nc3ccccc3)c(O)c12.[Na+].[Na+]` [Acid Red 33, diantrium salt of 5-amino-4-hydroxy-3-(phenylazo)-naphthalene-2,7-disulphonate], the solubility in water is given as 2.5 g/L.
